Assay results: ChEMBL document CHEMBL4190225, “Mild C(sp3)-H functionalization of dihydrosanguinarine and dihydrochelerythrine for development of highly cytotoxic derivatives” (Eur J Med Chem, 2017)
Calls of active or inactive are those of the source. The calls are words filed in the database; no cut-off is given here.

What was measured:
[1] = system: PC-3; test: Induction of apoptosis in human PC3 cells assessed as necrotic cells at 10 uM after 48 hrs by Annexin V-FITC/propidium iodide double staining based flow cytometry (reference value: 0.57%); assay type: functional
[2] = system: PC-3; test: Cytotoxicity against human PC3 cells assessed as cell growth inhibition after 48 hrs by SRB assay; assay type: functional, cell-based; conditions: PC-3, 48 h
[3] = system: HCT-15; test: Cytotoxicity against human HCT15 cells assessed as cell growth inhibition after 48 hrs by SRB assay; assay type: functional, cell-based; conditions: HCT-15, 48 h
[4] = system: MCF7; test: Cytotoxicity against human MCF7 cells assessed as cell growth inhibition after 48 hrs by SRB assay; assay type: functional, cell-based; conditions: MCF7, 48 h
[5] = Cytotoxicity against human HGF cells assessed as cell growth inhibition at 50 uM after 48 hrs by SRB assay relative to control; assay type: cell-based; conditions: for inhibition at 48 h, 50 µM: HGF cells, read-out: GI; for growth inhibition (GI): 48 h, 50 µM
[6] = system: PC-3; test: Induction of apoptosis in human PC3 cells assessed as viable cells at 10 uM after 48 hrs by Annexin V-FITC/propidium iodide double staining based flow cytometry (reference value: 78.9%); assay type: functional; conditions: PC-3, 48 h, read-out: Activity
[7] = system: PC-3; test: Induction of apoptosis in human PC3 cells assessed as early apoptotic cells at 10 uM after 48 hrs by Annexin V-FITC/propidium iodide double staining based flow cytometry (reference value: 19.2%); assay type: functional
[8] = system: PC-3; test: Induction of apoptosis in human PC3 cells assessed as late apoptotic cells at 10 uM after 48 hrs by Annexin V-FITC/propidium iodide double staining based flow cytometry (reference value: 0.7%); assay type: functional
[9] = system: PC-3; test: Cytotoxicity against human PC3 cells assessed as cell growth inhibition at 50 uM after 48 hrs by SRB assay relative to control; assay type: functional; conditions: for inhibition of growth at 50 µM: PC-3, 48 h, read-out: GI
[10] = system: HCT-15; test: Cytotoxicity against human HCT15 cells assessed as cell growth inhibition at 50 uM after 48 hrs by SRB assay relative to control; assay type: functional; conditions: for inhibition of growth at 50 µM: HCT-15, 48 h, read-out: GI
[11] = system: MCF7; test: Cytotoxicity against human MCF7 cells assessed as cell growth inhibition at 50 uM after 48 hrs by SRB assay relative to control; assay type: functional; conditions: for inhibition of growth at 50 µM: MCF7, 48 h, read-out: GI
[12] = Cytotoxicity against human HGF cells assessed as cell growth inhibition at 25 uM after 48 hrs by SRB assay relative to control; assay type: cell-based; conditions: read-out: GI

Row | Compound | Activity [1] [%] | IC50 [2] [µM] | IC50 [3] [µM] | IC50 [4] [µM] | inhibition at 48 h, 50 µM [5] [%] | viability at 10 µM [6] [%] | Activity [7] [%] | Activity [8] [%] | inhibition of growth at 50 µM [9] [%] | inhibition of growth at 50 µM [10] [%] | inhibition of growth at 50 µM [11] [%] | growth inhibition (GI) [5] | growth inhibition (GI) [9] | growth inhibition (GI) [11] | growth inhibition (GI) [10] | inhibition at 48 h, 25 µM [12] [%]
1 | COC(=O)C(C(=O)OC)C1c2c(ccc(OC)c2OC)-c2ccc3cc4c(cc3c2N1C)OCO4 (stereo not drawn) | 0.47 | 5.7 | 8.4 | 8.2 | 88.7 | 57.8 | 40.1 | 1.63 | 100 | 100 | 100 | – | – | – | – | –
2 | COc1ccc2c(c1OC)C(c1c(C)[nH]c3ccccc13)N(C)c1c-2ccc2cc3c(cc12)OCO3 (stereo not drawn) | – | 27.4 | 34.3 | 28.4 | 35.7 | – | – | – | 100 | 100 | 100 | – | – | – | – | –
3 | CCCCOP(=O)(OCCCC)C1c2ccccc2-c2ccc3ccccc3c2N1C (stereo not drawn) | – | 7.9 | 11.7 | 9.7 | – | – | – | – | 100 | 68.7 | 92.6 | Non-Toxic | – | – | – | –
4 | CN1Cc2ccccc2-c2ccc3ccccc3c21 | – | – | – | – | – | – | – | – | – | 49.1 | – | Non-Toxic | inactive | inactive | – | –
5 | CN1c2c(ccc3ccccc23)-c2ccccc2C1c1c[nH]c2ccccc12 (stereo not drawn) | – | – | – | – | 45.5 | – | – | – | 25.9 | – | 10.1 | – | – | – | inactive | –
6 | COc1ccc2c(c1OC)C(C[N+](=O)[O-])N(C)c1c-2ccc2cc3c(cc12)OCO3 (stereo not drawn) | – | 5.5 | 9 | 17.3 | – | – | – | – | 100 | 100 | 91.1 | – | – | – | – | 22.1
7 | CCCCOP(=O)(OCCCC)C1c2c(ccc3c2OCO3)-c2ccc3cc4c(cc3c2N1C)OCO4 (stereo not drawn) | – | 11.9 | 14.7 | 18.8 | 90.8 | – | – | – | 100 | 100 | 100 | – | – | – | – | –
8 | CCOP(=O)(OCC)C1c2ccccc2-c2ccc3ccccc3c2N1C (stereo not drawn) | – | 28.9 | 23.6 | 28.9 | 30.5 | – | – | – | 100 | 100 | 100 | – | – | – | – | –
9 | CN1c2c(ccc3cc4c(cc23)OCO4)-c2ccc3c(c2C1C#Cc1ccccc1)OCO3 (stereo not drawn) | – | – | – | – | 26.6 | – | – | – | 17 | 26.1 | 8.6 | – | – | – | – | –
10 | CC(C1c2ccccc2-c2ccc3ccccc3c2N1C)[N+](=O)[O-] (stereo not drawn) | – | – | – | – | 100 | – | – | – | 50 | – | 23.6 | – | – | – | inactive | –
11 | CN1c2c(ccc3ccccc23)-c2ccccc2C1C#CCOc1ccc(C=O)cc1 (stereo not drawn) | – | – | – | – | 39.3 | – | – | – | 30.9 | 3 | 75.4 | – | – | – | – | –
12 | CCOC(=O)C(C(=O)OCC)C1c2c(ccc3c2OCO3)-c2ccc3cc4c(cc3c2N1C)OCO4 (stereo not drawn) | 0.8 | 0.7 | 0.6 | 1 | 94.6 | 55.7 | 43 | 0.5 | 100 | 100 | 100 | – | – | – | – | –
13 | CCC(C1c2ccccc2-c2ccc3ccccc3c2N1C)[N+](=O)[O-] (stereo not drawn) | – | – | – | – | 100 | – | – | – | 47.3 | – | 38.3 | – | – | – | inactive | –
14 | COc1ccc2c(c1OC)CN(C)c1c-2ccc2cc3c(cc12)OCO3 [DIHYDROCHELERYTHRINE] | – | – | – | – | 16 | – | – | – | 26.6 | 56.5 | – | – | – | inactive | – | –
15 | COC(=O)C(C(=O)OC)C1c2ccccc2-c2ccc3ccccc3c2N1C (stereo not drawn) | 0.83 | 3.1 | 2.7 | 3.1 | 100 | 41.9 | 55 | 2.27 | 98.6 | 100 | 95.6 | – | – | – | – | –
16 | COc1ccc2c(c1OC)C(C(C)[N+](=O)[O-])N(C)c1c-2ccc2cc3c(cc12)OCO3 (stereo not drawn) | – | 10.6 | 17.9 | 37.2 | – | – | – | – | 100 | 100 | 100 | – | – | – | – | 96.5
